Reference: ChEMBL document CHEMBL3244029, “Synthesis and stereospecific antipsychotic activity of (-)-1-cyclopropylmethyl-4-(3-trifluoromethylthio-5H-dibenzo[a,d]cyclohepten-5-ylidene)piperidine” (J Med Chem, 1977)
Values joined by “and” are separate entries in the source; they are usually repeats but may differ in a detail not shown here. Identical values can stand only once.

How the values were obtained:
Saimiri [1] = assay: Antipsychotic activity in squirrel monkey assessed as inhibition of conditioned avoidance response measured as maximum number of shocks possible per 30 mins interval at 1 mg/kg, po administered followed by saline 15 mins later measured after 3 to 3.5 hrs of dosing; format: functional
Saimiri [2] = assay: Antipsychotic activity in squirrel monkey assessed as inhibition of conditioned avoidance response measured as maximum number of shocks possible per 30 mins interval at 1 mg/kg, po administered followed by saline 15 mins later measured after 4 to 4.5 hrs of dosing; format: functional
Saimiri [3] = assay: Antipsychotic activity in squirrel monkey assessed as inhibition of conditioned avoidance response measured as maximum number of shocks possible per 30 mins interval at 1 mg/kg, po administered followed by saline 15 mins later measured after 1.5 to 2 hrs of dosing; format: functional
Saimiri [4] = assay: Antipsychotic activity in squirrel monkey assessed as inhibition of conditioned avoidance response measured as maximum number of shocks possible per 30 mins interval at 1 mg/kg, po administered followed by saline 15 mins later measured after 2 to 2.5 hrs of dosing; format: functional
Saimiri [5] = assay: Antipsychotic activity in squirrel monkey assessed as inhibition of conditioned avoidance response measured as maximum number of shocks possible per 30 mins interval at 1 mg/kg, po administered followed by saline 15 mins later measured after 3.5 to 4 hrs of dosing; format: functional
Saimiri [6] = assay: Antipsychotic activity in squirrel monkey assessed as inhibition of conditioned avoidance response measured as maximum number of shocks possible per 30 mins interval at 1 mg/kg, po administered followed by saline 15 mins later measured after 0 to 0.5 hrs of dosing; format: functional
Saimiri [7] = assay: Antipsychotic activity in squirrel monkey assessed as inhibition of conditioned avoidance response measured as maximum number of shocks possible per 30 mins interval at 1 mg/kg, po administered followed by saline 15 mins later measured after 2.5 to 3 hrs of dosing; format: functional
Saimiri [8] = assay: Antipsychotic activity in squirrel monkey assessed as inhibition of conditioned avoidance response measured as maximum number of shocks possible per 30 mins interval at 1 mg/kg, po administered followed by saline 15 mins later measured after 1 to 1.5 hrs of dosing; format: functional
Saimiri [9] = assay: Antipsychotic activity in squirrel monkey assessed as inhibition of conditioned avoidance response measured as maximum number of shocks possible per 30 mins interval at 1 mg/kg, po administered followed by saline 15 mins later measured after 0.5 to 1 hrs of dosing; format: functional
Saimiri [10] = assay: Antipsychotic activity in po dosed squirrel monkey assessed as inhibition of conditioned avoidance response measured as maximum number of shocks; format: functional
Saimiri [11] = assay: Antipsychotic activity in squirrel monkey assessed as inhibition of conditioned avoidance response measured as maximum number of shocks possible per 30 mins interval at 1 mg/kg, po 10 days later animal received test compound and again saline measured after 1.5 to 2 hrs of dosing; format: functional
Saimiri [12] = assay: Antipsychotic activity in squirrel monkey assessed as inhibition of conditioned avoidance response measured as maximum number of shocks possible per 30 mins interval at 1 mg/kg, po 6 days later animal received test compound followed by 0.75 mg/kg, im benztropine 15 mins later measured after 4 to 4.5 hrs of dosing; format: functional
Mus musculus [13] = assay: Central anticholinergic activity against physostigmine-induced lethality in Carworth CF1 mouse assessed as animal death at 30 mg/kg, po treated 5 hrs before 1.6 mg/kg, sc physostigmine treatment and 2 mg/kg, ip atropine methyl nitrate treated 0.5 hrs before induction (reference value: 0%); format: functional
Saimiri [14] = assay: Antipsychotic activity in squirrel monkey assessed as inhibition of conditioned avoidance response measured as maximum number of shocks possible per 30 mins interval at 0.25 mg/kg, po after 60 to 90 mins dosing; format: functional
Saimiri [15] = assay: Antipsychotic activity in squirrel monkey assessed as inhibition of conditioned avoidance response measured as maximum number of shocks possible per 30 mins interval at 1 mg/kg, po 10 days later animal received test compound and again saline measured after 2 to 2.5 hrs of dosing; format: functional
Saimiri [16] = assay: Antipsychotic activity in squirrel monkey assessed as inhibition of conditioned avoidance response measured as maximum number of shocks possible per 30 mins interval at 1 mg/kg, po after 240 to 270 mins dosing; format: functional
Saimiri [17] = assay: Antipsychotic activity in squirrel monkey assessed as inhibition of conditioned avoidance response measured as maximum number of shocks possible per 30 mins interval at 1 mg/kg, po 6 days later animal received test compound followed by 0.75 mg/kg, im benztropine 15 mins later measured after 2.5 to 3 hrs of dosing; format: functional
Mus musculus [18] = assay: Central anticholinergic activity against physostigmine-induced lethality in Carworth CF1 mouse assessed as animal death at 3.75 mg/kg, po treated 5 hrs before 1.6 mg/kg, sc physostigmine treatment and 2 mg/kg, ip atropine methyl nitrate treated 0.5 hrs before induction (reference value: 0%); format: functional
Saimiri [19] = assay: Antipsychotic activity in squirrel monkey assessed as inhibition of conditioned avoidance response measured as maximum number of shocks possible per 30 mins interval at 1 mg/kg, po 10 days later animal received test compound and again saline measured after 0 to 0.5 hrs of dosing; format: functional
Mus musculus [20] = assay: Central anticholinergic activity against physostigmine-induced lethality in Carworth CF1 mouse assessed as animal death at 15 mg/kg, po treated 5 hrs before 1.6 mg/kg, sc physostigmine treatment and 2 mg/kg, ip atropine methyl nitrate treated 0.5 hrs before induction (reference value: 0%); format: functional
Saimiri [21] = assay: Antipsychotic activity in squirrel monkey assessed as inhibition of conditioned avoidance response measured as maximum number of shocks possible per 30 mins interval at 0.50 mg/kg, po after 150 to 180 mins dosing; format: functional; conditions: dose 0.5 mg/kg
Saimiri [22] = assay: Antipsychotic activity in squirrel monkey assessed as inhibition of conditioned avoidance response measured as maximum number of shocks possible per 30 mins interval at 0.50 mg/kg, po after 120 to 150 mins dosing; format: functional; conditions: dose 0.5 mg/kg
Saimiri [23] = assay: Antipsychotic activity in squirrel monkey assessed as inhibition of conditioned avoidance response measured as maximum number of shocks possible per 30 mins interval at 1 mg/kg, po 6 days later animal received test compound followed by 0.75 mg/kg, im benztropine 15 mins later measured after 2 to 2.5 hrs of dosing; format: functional
Mus musculus [24] = assay: Central anticholinergic activity against physostigmine-induced lethality in Carworth CF1 mouse assessed as animal death at 7.5 mg/kg, po treated 5 hrs before 1.6 mg/kg, sc physostigmine treatment and 2 mg/kg, ip atropine methyl nitrate treated 0.5 hrs before induction (reference value: 0%); format: functional
Mus musculus [25] = assay: Peripheral anticholinergic activity in po dosed Carworth CF1 mouse assessed as dose required to produce pupil dilation to 1.5 micrometer units in 50% mouse after 2 hrs; format: ADME, organism-based; conditions: in vivo
Saimiri [26] = assay: Antipsychotic activity in squirrel monkey assessed as inhibition of conditioned avoidance response measured as maximum number of shocks possible per 30 mins interval at 1 mg/kg, po 6 days later animal received test compound followed by 0.75 mg/kg, im benztropine 15 mins later measured after 1.5 to 2 hrs of dosing; format: functional
Saimiri [27] = assay: Antipsychotic activity in squirrel monkey assessed as inhibition of conditioned avoidance response measured as maximum number of shocks possible per 30 mins interval at 1 mg/kg, po 6 days later animal received test compound followed by 0.75 mg/kg, im benztropine 15 mins later measured after 3 to 3.5 hrs of dosing; format: functional
Saimiri [28] = assay: Antipsychotic activity in squirrel monkey assessed as inhibition of conditioned avoidance response measured as maximum number of shocks possible per 30 mins interval at 1 mg/kg, po after 210 to 240 mins dosing; format: functional
Saimiri [29] = assay: Antipsychotic activity in squirrel monkey assessed as inhibition of conditioned avoidance response measured as maximum number of shocks possible per 30 mins interval at 1 mg/kg, po 6 days later animal received test compound followed by 0.75 mg/kg, im benztropine 15 mins later measured after 0 to 0.5 hrs of dosing; format: functional
Saimiri [30] = assay: Antipsychotic activity in squirrel monkey assessed as inhibition of conditioned avoidance response measured as maximum number of shocks possible per 30 mins interval at 1 mg/kg, po 6 days later animal received test compound followed by 0.75 mg/kg, im benztropine 15 mins later measured after 3.5 to 4 hrs of dosing; format: functional
Saimiri [31] = assay: Antipsychotic activity in squirrel monkey assessed as inhibition of conditioned avoidance response measured as maximum number of shocks possible per 30 mins interval at 1 mg/kg, po 10 days later animal received test compound and again saline measured after 0.5 to 1 hrs of dosing; format: functional
Saimiri [32] = assay: Antipsychotic activity in squirrel monkey assessed as inhibition of conditioned avoidance response measured as maximum number of shocks possible per 30 mins interval at 1 mg/kg, po 10 days later animal received test compound and again saline measured after 3.5 to 4 hrs of dosing; format: functional
Mus musculus [33] = assay: Peripheral anticholinergic activity in po dosed Carworth CF1 mouse assessed as dose required to produce pupil dilation to 1.5 micrometer units in 50% mouse after 5 hrs; format: ADME, organism-based; conditions: in vivo
Saimiri [34] = assay: Antipsychotic activity in squirrel monkey assessed as inhibition of conditioned avoidance response measured as maximum number of shocks possible per 30 mins interval at 1 mg/kg, po 10 days later animal received test compound and again saline measured after 2.5 to 3 hrs of dosing; format: functional
Saimiri [35] = assay: Antipsychotic activity in squirrel monkey assessed as inhibition of conditioned avoidance response measured as maximum number of shocks possible per 30 mins interval at 1 mg/kg, po 6 days later animal received test compound followed by 0.75 mg/kg, im benztropine 15 mins later measured after 0.5 to 1 hrs of dosing; format: functional
Saimiri [36] = assay: Antipsychotic activity in squirrel monkey assessed as inhibition of conditioned avoidance response measured as maximum number of shocks possible per 30 mins interval at 0.50 mg/kg, po after 90 to 120 mins dosing; format: functional; conditions: dose 0.5 mg/kg
Saimiri [37] = assay: Antipsychotic activity in squirrel monkey assessed as inhibition of conditioned avoidance response measured as maximum number of shocks possible per 30 mins interval at 1 mg/kg, po after 180 to 210 mins dosing; format: functional
Saimiri [38] = assay: Antipsychotic activity in squirrel monkey assessed as inhibition of conditioned avoidance response measured as maximum number of shocks possible per 30 mins interval at 0.25 mg/kg, po after 0 to 30 mins dosing; format: functional
Saimiri [39] = assay: Antipsychotic activity in squirrel monkey assessed as inhibition of conditioned avoidance response measured as maximum number of shocks possible per 30 mins interval at 1 mg/kg, po 10 days later animal received test compound and again saline measured after 1 to 1.5 hrs of dosing; format: functional
Saimiri [40] = assay: Antipsychotic activity in squirrel monkey assessed as inhibition of conditioned avoidance response measured as maximum number of shocks possible per 30 mins interval at 0.25 mg/kg, po after 30 to 60 mins dosing; format: functional
Saimiri [41] = assay: Antipsychotic activity in squirrel monkey assessed as inhibition of conditioned avoidance response measured as maximum number of shocks possible per 30 mins interval at 1 mg/kg, po 6 days later animal received test compound followed by 0.75 mg/kg, im benztropine 15 mins later measured after 1 to 1.5 hrs of dosing; format: functional
Saimiri [42] = assay: Antipsychotic activity in squirrel monkey assessed as inhibition of conditioned avoidance response measured as maximum number of shocks possible per 30 mins interval at 1 mg/kg, po 10 days later animal received test compound and again saline measured after 3 to 3.5 hrs of dosing; format: functional
Saimiri [43] = assay: Antipsychotic activity in squirrel monkey assessed as inhibition of conditioned avoidance response measured as maximum number of shocks possible per 30 mins interval at 1 mg/kg, po 10 days later animal received test compound and again saline measured after 4 to 4.5 hrs of dosing; format: functional
Rattus norvegicus = assay: Blockade of po dosed apomorphine-induced stereotyped behavior in Sprague-Dawley rat assessed as continuous sniffing, licking, gnawing, or biting; format: functional
[44] = Saimiri, in Primates, po, read-out: ED50

FC(F)(F)Sc1ccc2c(c1)C(=C1CCN(CC3CC3)CC1)c1ccccc1C=C2.O=P(O)(O)O
%max (Saimiri [1]): 66.7%
%max (Saimiri [2]): 82%
%max (Saimiri [3]): 62%
%max (Saimiri [4]): 65%
%max (Saimiri [5]): 90%
%max (Saimiri [6]): 0%
%max (Saimiri [7]): 69%
%max (Saimiri [8]): 61.3%
%max (Saimiri [9]): 9.6%
ED50 (Saimiri [10]): 0.99 mg/kg
ED50 (Saimiri [10]; [44]): 0.51 mg/kg

FC(F)(F)Sc1ccc2c(c1)C(=C1CCN(CC3CC3)CC1)c1ccccc1C=C2 (single isomer, unassigned; atropisomer)
%max (Saimiri [11]): 52.7%
%max (Saimiri [12]): 3.7%
Activity (Mus musculus [13]): 85% and 63%
%max (Saimiri [14]): 0.68%
%max (Saimiri [15]): 69.3%
%max (Saimiri [16]): 100%
%max (Saimiri [17]): 4.3%
Activity (Mus musculus [18]): 100%
%max (Saimiri [19]): 0%
Activity (Mus musculus [20]): 100% and 85%
%max (Saimiri [21]): 97.4%
%max (Saimiri [22]): 39.4%
%max (Saimiri [23]): 8.7%
Activity (Mus musculus [24]): 95% and 80%
ED (Mus musculus [25]): > 120 mg/kg
%max (Saimiri [26]): 5.3%
%max (Saimiri [27]): 4%
%max (Saimiri [28]): 100%
%max (Saimiri [29]): 2%
%max (Saimiri [30]): 3%
%max (Saimiri [31]): 1.7%
%max (Saimiri [32]): 73%
ED (Mus musculus [33]): > 120 mg/kg
%max (Saimiri [34]): 42.7%
%max (Saimiri [35]): 7.6%
%max (Saimiri [36]): 17.4%
%max (Saimiri [37]): 100%
%max (Saimiri [38]): 0.34%
%max (Saimiri [39]): 42%
%max (Saimiri [40]): 0.34%
%max (Saimiri [41]): 5.7%
%max (Saimiri [42]): 70.3%
%max (Saimiri [43]): 64.3%

O=C(CCCN1CCC(O)(c2ccc(Cl)cc2)CC1)c1ccc(F)cc1 [HALOPERIDOL]
ED50 (Rattus norvegicus): 0.32 mg/kg
ED50 (Saimiri [10]; [44]): 0.29 mg/kg
